# Results reported in ChEMBL document CHEMBL1140870, “Interrogating the mechanism of a tight binding inhibitor of AIR carboxylase” (Bioorg Med Chem, 2009).
# Tested on: not listed separately
# Assay: Dissociation constant, pKa of the compound
# Type: physicochemical
row,pKa,Structure (SMILES)
1,0.3,Nc1c([N+](=O)[O-])ncn1[C@@H]1O[C@H](COP(=O)(O)O)[C@@H](O)[C@H]1O

# Molecular target: T1, Multifunctional protein ADE2 (Gallus gallus, UniProt P38024)
# T1 sequence (P38024 whole entry): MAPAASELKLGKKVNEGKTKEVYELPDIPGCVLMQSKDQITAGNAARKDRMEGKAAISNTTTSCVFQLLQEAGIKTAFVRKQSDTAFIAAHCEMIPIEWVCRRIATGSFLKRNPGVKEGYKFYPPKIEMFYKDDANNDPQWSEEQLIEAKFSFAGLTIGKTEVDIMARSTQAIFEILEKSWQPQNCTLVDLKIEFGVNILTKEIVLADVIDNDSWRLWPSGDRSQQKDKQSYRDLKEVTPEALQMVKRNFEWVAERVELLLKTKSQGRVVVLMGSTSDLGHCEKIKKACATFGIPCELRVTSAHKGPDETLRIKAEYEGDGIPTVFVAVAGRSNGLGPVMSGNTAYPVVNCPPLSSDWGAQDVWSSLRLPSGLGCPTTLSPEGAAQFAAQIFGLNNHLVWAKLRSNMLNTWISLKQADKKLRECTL
# Assay: Inhibition of Gallus gallus AIR carboxylase by CAIR decarboxylation assay
Ki [nM],IC50 [µM],Structure (SMILES)
62000,,Nc1c(C=O)ncn1[C@@H]1O[C@H](COP(=O)(O)O)[C@@H](O)[C@H]1O
6000,,Nc1c(C(=O)O)cnn1[C@@H]1O[C@H](COP(=O)(O)O)[C@@H](O)[C@H]1O
2800,,Nc1c(C(=O)O)nnn1[C@@H]1O[C@H](COP(=O)(O)O)[C@@H](O)[C@H]1O
0.34,,Nc1c([N+](=O)[O-])ncn1[C@@H]1O[C@H](COP(=O)(O)O)[C@@H](O)[C@H]1O
1300,,O=[N+]([O-])c1cn([C@@H]2O[C@H](COP(=O)(O)O)[C@@H](O)[C@H]2O)cn1
,> 100,O=[N+]([O-])c1ccn([C@@H]2O[C@H](COP(=O)(O)O)[C@@H](O)[C@H]2O)c1
22000,,O=[N+]([O-])c1cnn([C@@H]2O[C@H](COP(=O)(O)O)[C@@H](O)[C@H]2O)c1
390,,Nc1c([N+](=O)[O-])cnn1[C@@H]1O[C@H](COP(=O)(O)O)[C@@H](O)[C@H]1O
